Results taken from ChEMBL document CHEMBL1201862, “PubChem BioAssay data set” (2004).
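Cultured in 96-well plates, cells were exposed to test compound for 48 hours across five concentrations. GI50 marks 50% less growth.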 Active and inactive are the calls of the source. Cut-off read from the data, not from the text of the source: active = GI50 up to about 1.1 µM and inactive = higher.

Legend:
Test in all cases: growth of human tumour cells (NCI), 48 h
HT-29 = system: HT-29
UO-31 = system: UO-31
UACC-257 = system: UACC-257
SK-MEL-28 = system: SK-MEL-28
SNB-75 = system: SNB-75
SW-620 = system: SW-620
A498 = system: A498
U-251 = system: U-251
CAKI-1 = system: CAKI-1
ACHN = system: ACHN
SF-295 = system: SF-295
OVCAR-4 = system: OVCAR-4
NCI-H23 = system: NCI-H23
Malme-3M = system: Malme-3M
HCT-15 = system: HCT-15
SR = system: SR

Compound	GI50 (HT-29)	GI50 (UO-31)	GI50 (UACC-257)	GI50 (SK-MEL-28)	GI50 (SNB-75)	GI50 (SW-620)	GI50 (A498)	GI50 (U-251)	GI50 (CAKI-1)	GI50 (ACHN)	GI50 (SF-295)	GI50 (OVCAR-4)	GI50 (NCI-H23)	GI50 (Malme-3M)	GI50 (HCT-15)	GI50 (SR)
Nc1c(-c2nc3ccccc3s2)[n+]([O-])c2ccccc2[n+]1[O-]	37 µM (inactive)	21.8 µM (inactive)	30.8 µM (inactive)	25.2 µM (inactive)	26.7 µM (inactive)	43.5 µM (inactive)	33.2 µM (inactive)	38.9 µM (inactive)	25.8 µM (inactive)	24.6 µM (inactive)	23.6 µM (inactive)	42.1 µM (inactive)	20 µM (inactive)	30.4 µM (inactive)	–	–
O=C(Nc1ccc(Cl)cc1C(=O)O)c1ccc([N+](=O)[O-])cc1	18.9 µM (inactive)	19 µM (inactive)	18.6 µM (inactive)	28.2 µM (inactive)	45.4 µM (inactive)	29.7 µM (inactive)	9.77 µM (inactive)	18.8 µM (inactive)	–	17.1 µM (inactive)	23.7 µM (inactive)	18.6 µM (inactive)	–	4.95 µM (inactive)	16.7 µM	–
Cc1noc(C)c1CCCOC1COc2ccccc2OCCOCCOc2ccccc2OC1	> 100 µM (inactive)	> 100 µM (inactive)	> 100 µM (inactive)	> 100 µM (inactive)	65.8 µM (inactive)	> 100 µM (inactive)	> 100 µM (inactive)	> 100 µM (inactive)	> 100 µM (inactive)	> 100 µM (inactive)	> 100 µM (inactive)	> 100 µM (inactive)	> 100 µM (inactive)	80.4 µM (inactive)	> 100 µM	–
CCOC(=O)Nn1c(C)cc(C(=O)OC)c1C	> 100 µM (inactive)	> 100 µM (inactive)	> 100 µM (inactive)	> 100 µM (inactive)	> 100 µM (inactive)	> 100 µM (inactive)	> 100 µM (inactive)	> 100 µM (inactive)	> 100 µM (inactive)	> 100 µM (inactive)	> 100 µM (inactive)	–	> 100 µM (inactive)	> 100 µM (inactive)	> 100 µM	–
Cc1cc2cc(Cl)ccc2nc1C(=O)c1ccccc1	–	> 100 µM (inactive)	32.4 µM (inactive)	> 100 µM (inactive)	21.3 µM (inactive)	> 100 µM (inactive)	–	> 100 µM (inactive)	> 100 µM (inactive)	> 100 µM (inactive)	27.8 µM (inactive)	> 100 µM (inactive)	> 100 µM (inactive)	> 100 µM (inactive)	> 100 µM	> 100 µM (inactive)
C[N+]1(C)C/C(=C\c2ccncc2)C(=O)/C(=C/c2ccncc2)C1	> 100 µM (inactive)	> 100 µM (inactive)	> 100 µM (inactive)	> 100 µM (inactive)	> 100 µM (inactive)	52.7 µM (inactive)	> 100 µM (inactive)	85.5 µM (inactive)	> 100 µM (inactive)	> 100 µM (inactive)	> 100 µM (inactive)	> 100 µM (inactive)	–	> 100 µM (inactive)	> 100 µM	> 100 µM (inactive)
O=C1c2ccc(O)cc2C(=O)c2ccc(O)cc21	> 100 µM (inactive)	24.3 µM (inactive)	> 100 µM (inactive)	78.5 µM (inactive)	29.6 µM (inactive)	92.5 µM (inactive)	38.5 µM (inactive)	49.4 µM (inactive)	32.9 µM (inactive)	36.9 µM (inactive)	> 100 µM (inactive)	> 100 µM (inactive)	59.2 µM (inactive)	57.4 µM (inactive)	52.5 µM	–
COc1ccc(C(=O)N2c3ccccc3N(C)n3cccc3C2CC(=O)O)cc1 (stereo not given)	> 100 µM (inactive)	> 100 µM (inactive)	> 100 µM (inactive)	> 100 µM (inactive)	> 100 µM (inactive)	> 100 µM (inactive)	> 100 µM (inactive)	–	> 100 µM (inactive)	> 100 µM (inactive)	> 100 µM (inactive)	> 100 µM (inactive)	> 100 µM (inactive)	> 100 µM (inactive)	> 100 µM	–
Cc1ccc(NC(=O)C(=O)C2C(=O)NC(=O)NC2=O)cc1C	> 100 µM (inactive)	> 100 µM (inactive)	> 100 µM (inactive)	> 100 µM (inactive)	> 100 µM (inactive)	> 100 µM (inactive)	–	> 100 µM (inactive)	> 100 µM (inactive)	> 100 µM (inactive)	> 100 µM (inactive)	> 100 µM (inactive)	> 100 µM (inactive)	> 100 µM (inactive)	> 100 µM	> 100 µM (inactive)
COc1ccc(/C=C/C(=O)c2c(-c3ccccc3)nn(C)c(=O)c2N2CCCCC2)cc1	14.9 µM (inactive)	13.9 µM (inactive)	–	14.9 µM (inactive)	–	24.5 µM (inactive)	–	14.5 µM (inactive)	31.2 µM (inactive)	40.1 µM (inactive)	21.6 µM (inactive)	–	14 µM (inactive)	–	20.7 µM	–
CC(C)c1ccc(/C=C(\NC(=O)c2ccccc2)c2nc3ccccc3[nH]2)cc1	33.6 µM (inactive)	38.7 µM (inactive)	35.2 µM (inactive)	> 10 µM (inactive)	36.3 µM (inactive)	49.4 µM (inactive)	40.6 µM (inactive)	39.4 µM (inactive)	50.6 µM (inactive)	33.7 µM (inactive)	–	30.2 µM (inactive)	26.8 µM (inactive)	79.3 µM (inactive)	43.1 µM	–
CCOC(=O)CC1=N/C(=N/c2cc(Cl)ccc2Cl)SC1	54.1 µM (inactive)	> 100 µM (inactive)	> 100 µM (inactive)	> 100 µM (inactive)	78 µM (inactive)	> 100 µM (inactive)	> 100 µM (inactive)	> 100 µM (inactive)	> 100 µM (inactive)	> 100 µM (inactive)	> 100 µM (inactive)	> 100 µM (inactive)	> 100 µM (inactive)	> 100 µM (inactive)	59.4 µM	–
C/C(=N/NC(=O)c1ccccc1O)c1ccc(/C(C)=N\NC(=O)c2ccccc2O)c2nc3cc(C)c(C)cc3nc12	> 100 µM (inactive)	> 100 µM (inactive)	> 100 µM (inactive)	> 100 µM (inactive)	38.7 µM (inactive)	> 100 µM (inactive)	> 100 µM (inactive)	> 100 µM (inactive)	–	> 100 µM (inactive)	> 100 µM (inactive)	> 100 µM (inactive)	> 100 µM (inactive)	> 100 µM (inactive)	> 100 µM	–
Cc1cc2c(c(N)c1C)C(=O)c1ccccc1C2=O	49.5 µM (inactive)	10.6 µM (inactive)	87.1 µM (inactive)	–	12.5 µM (inactive)	59.7 µM (inactive)	19.7 µM (inactive)	20.3 µM (inactive)	14.5 µM (inactive)	14.1 µM (inactive)	27.4 µM (inactive)	17.5 µM (inactive)	–	42.3 µM (inactive)	45.8 µM	> 100 µM (inactive)
O=C1C2c3[nH]c4ccccc4c3[C@@H]3CCCCCCCCCCC3C2C(=O)N1c1ccccc1 (stereo not given in full)	27.6 µM (inactive)	32.9 µM (inactive)	–	23.2 µM (inactive)	3.18 µM (inactive)	15.2 µM (inactive)	–	18.2 µM (inactive)	–	25.9 µM (inactive)	16.3 µM (inactive)	17.6 µM (inactive)	17.5 µM (inactive)	–	38.6 µM	12.8 µM (inactive)
COc1ccc(-c2nnc(-c3c(C)n(C)n(-c4ccccc4)c3=O)o2)cc1	> 100 µM (inactive)	> 100 µM (inactive)	> 100 µM (inactive)	> 100 µM (inactive)	> 100 µM (inactive)	> 100 µM (inactive)	> 100 µM (inactive)	> 100 µM (inactive)	–	> 100 µM (inactive)	> 100 µM (inactive)	> 100 µM (inactive)	> 100 µM (inactive)	> 100 µM (inactive)	> 100 µM	> 100 µM (inactive)
CC(=O)OC1[C@H]2c3cc4c(cc3CN3CCC(=C[C@@H]1O)C23)OCO4 (stereo not given in full)	> 100 µM (inactive)	> 100 µM (inactive)	46.9 µM (inactive)	23.4 µM (inactive)	47.6 µM (inactive)	> 100 µM (inactive)	–	> 100 µM (inactive)	–	33.1 µM (inactive)	43.6 µM (inactive)	–	> 100 µM (inactive)	> 100 µM (inactive)	> 100 µM	> 100 µM (inactive)
c1ccc(C2C3=C(Nc4ncnn42)c2ccccc2C3)cc1 (stereo not given)	4.3 µM (inactive)	48.2 µM (inactive)	> 100 µM (inactive)	–	83.9 µM (inactive)	4.93 µM (inactive)	51.2 µM (inactive)	2.93 µM (inactive)	42.3 µM (inactive)	82.6 µM (inactive)	8.02 µM (inactive)	95.9 µM (inactive)	15 µM (inactive)	15.6 µM (inactive)	20.1 µM	–
COC[C@H](C)/N=C/N1CCc2ccccc2C1(Cc1ccccc1)Cc1ccccc1	5.07 µM (inactive)	12.9 µM (inactive)	13.8 µM (inactive)	11.1 µM (inactive)	17.8 µM (inactive)	22.6 µM (inactive)	–	13.8 µM (inactive)	16.3 µM (inactive)	21.2 µM (inactive)	14.5 µM (inactive)	12.8 µM (inactive)	17.2 µM (inactive)	11.8 µM (inactive)	11 µM	11.6 µM (inactive)
COc1cc(C2C(Cl)C(=O)N2NC(=O)Cc2ccccc2)cc(Br)c1O (stereo not given)	> 100 µM (inactive)	64.9 µM (inactive)	> 100 µM (inactive)	> 100 µM (inactive)	64.9 µM (inactive)	> 100 µM (inactive)	–	> 100 µM (inactive)	> 100 µM (inactive)	> 100 µM (inactive)	> 100 µM (inactive)	63.5 µM (inactive)	76.9 µM (inactive)	> 100 µM (inactive)	51.8 µM	56.6 µM (inactive)
